Results published in ChEMBL document CHEMBL5726485, “Polycyclic pyridone derivative having integrase inhibitory activity” (2019).

assay: Anti-HIV Activity: Previously, a series of two-fold dilution on test samples were carried out in a 96-well plate (50 μL/well). Two plates were made for measuring anti-HIV activity and measuring cytotoxicity. For each agent, measurement in duplicate was carried out. An MT-4 cell suspension of 2.5×10^5/mL was dispensed at 100 μL/well onto the 96-well plate containing the test samples. An HIV virus solution was dispensed at 50 μL/well onto the 96-well plate containing the test samples and the cell. To the plate for measuring cytotoxicity, a culture solution was dispensed at 50 μL/well. It was mixed by a plate mixer, and then incubated in a CO2 incubator for 4 days. […] Thirty microliters of a MTT (3-(4,5-dimethylthiazol-2-yl)-2,5-diphenyltetrazolium bromide) solution was dispensed to each well.A reaction was allowed to occur in a CO2 incubator for an hour. From each well, 150 μL of the supernatant was removed such that cells are not sucked. One-hundred and fifty microliters of a cell lysis solution was added thereto, and then it was mixed well by a plate mixer until the whole cells are lysed. The mixed 96-well plates were measured by a microplate reader at two wavelengths, 560 nm/690 nm. Based on the following calculation formula, 50% HIV inhibition concentration (EC50) was calculated.; conditions: MT4

Row | SMILES | EC50
1 | C[C@H]1CCN(C2CC2)[C@@H]2Cn3cc(-c4nnc(Cc5ccc(F)cc5F)s4)c(=O)c(OCc4ccccc4)c3C(=O)N12 | 3 nM
2 | C[C@H]1CCO[C@@H]2Cn3cc(-c4nnc(Cc5ccc(F)cc5F)s4)c(=O)c(O)c3C(=O)N12 | 2.1 nM
3 | C[C@H]1CCO[C@@H]2Cn3cc(-c4nnc(Cc5c(F)cc(F)cc5F)s4)c(=O)c(O)c3C(=O)N12 | 1.4 nM
4 | COCCN1CN(CC(C)C)n2cc(C(=O)NNC(=S)Cc3ccc(F)cc3F)c(=O)c(O)c2C1=O | 3.4 nM
5 | CCN1CN(CCOC)C(=O)c2c(O)c(=O)c(-c3ncc(Cc4cccc(Cl)c4F)s3)cn21 | 8.7 nM
6 | C[C@@H]1C[C@@H](C)N2C(=O)c3c(O)c(=O)c(-c4nnc(Cc5ccc(F)cc5F)s4)cn3C[C@@H]2O1 | 2.7 nM
7 | O=C1c2c(O)c(=O)c(-c3ncc(Cc4ccc(F)cc4F)s3)cn2C[C@@H]2CCCCN12 | 11 nM
8 | C[C@@H]1CCC2C(=O)c3c(O)c(=O)c(-c4ncc(Cc5ccc(F)cc5F)s4)cn3C[C@@H]2O1 (stereo partly specified) | 7.4 nM
9 | C[C@H]1CCO[C@@H]2Cn3cc(-c4nnc(Cc5ccc(F)c(Cl)c5F)s4)c(=O)c(O)c3C(=O)N12 | 2.3 nM
10 | C[C@@H]1C[C@@H](C)N2C(=O)c3c(O)c(=O)c(-c4nnc(Cc5cccc(Cl)c5F)s4)cn3C[C@@H]2O1 | 2.8 nM
11 | O=C1c2c(O)c(=O)c(-c3nnc(Cc4ccc(F)cc4F)s3)cn2C[C@H]2O[C@@H]3CCC[C@@H]3N12 | 1.6 nM
